Results on one molecule are retold here after patent publication US6796312B2, “Process and apparatus for the removal of toxic components of tobacco smoke and the standardization of the health hazards related to those components” (priority 2001, dated 2004).

Values joined by “and” are separate entries in the source; they are usually repeats but may differ in a detail not shown here. Identical values can stand only once. Like-named read-outs stand apart in the source and are kept apart here.

The target of series [1] is T1, myeloperoxidase (Homo sapiens, UniProt P05164).
T1 construct: Homogenates were centrifuged at 1,300×g for ten (10) minutes and the supernatant extracts were kept during the course of analysis; from tissue; host or cells: human sputum / oral fluid-cell harvest (neutrophil-rich) homogenate supernatants
T1 sequence (P05164 49-745): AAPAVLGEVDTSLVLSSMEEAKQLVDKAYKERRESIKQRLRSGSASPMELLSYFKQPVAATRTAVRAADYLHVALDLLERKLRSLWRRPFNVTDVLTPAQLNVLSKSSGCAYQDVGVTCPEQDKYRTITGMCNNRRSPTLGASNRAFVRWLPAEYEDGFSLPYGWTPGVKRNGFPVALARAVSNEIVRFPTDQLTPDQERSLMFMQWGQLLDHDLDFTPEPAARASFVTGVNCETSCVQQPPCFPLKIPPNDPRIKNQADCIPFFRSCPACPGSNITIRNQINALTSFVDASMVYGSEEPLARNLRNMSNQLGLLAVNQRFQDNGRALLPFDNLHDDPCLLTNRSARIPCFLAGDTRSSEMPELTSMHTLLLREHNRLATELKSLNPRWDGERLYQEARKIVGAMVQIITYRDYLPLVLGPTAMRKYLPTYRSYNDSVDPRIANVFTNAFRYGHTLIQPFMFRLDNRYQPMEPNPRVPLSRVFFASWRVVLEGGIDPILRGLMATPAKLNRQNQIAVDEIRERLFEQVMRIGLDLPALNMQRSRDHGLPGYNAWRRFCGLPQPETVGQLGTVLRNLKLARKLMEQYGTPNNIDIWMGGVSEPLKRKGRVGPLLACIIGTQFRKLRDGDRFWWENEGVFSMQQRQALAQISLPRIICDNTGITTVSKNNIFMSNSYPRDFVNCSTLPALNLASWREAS
Kind of series: NADH2-NDGA-myeloperoxidase spectrophotometric assay of sputum / oral fluid-cell harvest supernatant extracts. Format: biochemical. On the procedure: Aliquots of fresh human oral fluid-cell harvests as exemplified above or fresh human sputum collected by the donors over a twenty-four (24) hour period were disrupted employing either Ten Broeck glass homogenizers or the Virtis homogenizer. Homogenates were centrifuged at 1,300×g for ten (10) minutes and the supernatant extracts were kept during the course of analysis at zero degrees centigrade (0° C.). Other reactants were incubated at thirty-five degrees centigrade (35° C.). Reduced nicotinamide-adenine dinucleotide oxidase and norhydroguaiaretic acid-myeloperoxidase activities were followed at 340 mμ or (nm) employing the Beckman Model DU Spectrophotometer temperature regulated at thirty-five degrees centigrade (35° C.). All specific reactions were run as duplicate assays.
Although this oxidation was very small under the conditions of experiment, an interaction correction factor was determined and applied to all reduced nicotinamide-adenine dinucleotide-nordihydroguaiaretic acid-mycloperoxidase assay reactions.
The velocity constants for the myeloperoxidase reactions behaved and were computed in accord with zero order reaction kinetics. […] In most instances, the activities followed first order reaction kinetics for a short interval and then ceased abruptly. The latter may be due to the presence or accumulation of variable concentrations of an unidentified inhibitor or inhibitors in the supernatants. Since in all cases the oxidase activities were very slow relative to the myeloperoxidase activities, the difference in optical density over the course of the reactions (up to ten (10) minutes) for the oxidase system were computed in the same manner as the data for the rapid myeloperoxidase system. Thus, all velocity constants were expressed in μ Moles of reduced nicotinamide-adenine dinucleotide oxidized per minute per ml. of oral fluid-cell harvest or sputum. The small oxidase activities were applied as a correction factor in the computation of all myeloperoxidase velocity constants.
The pH optimum of the myeloperoxidase system was determined. When fresh nordihydroguaiaretic acid solutions were prepared and interaction rates with reduced nicotinamide-adenine dinucleotide were subtracted as controls from oral lavage and sputum supernatant myeloperoxidase activities, the net velocity constants were zero (0). On the other hand, five (5) hour old nordihydroguaiaretic acid solutions yielded optimal activities at approximately pH 7.4. Subsequent experiments uniformly were carried out at pH 7.0 using five (5) hour old solutions to minimize the rates of the auto oxidation of nordihydroguaiaretic acid and oxidation of reduced nicotinamide-adenine dinucleotide by nordihydroguaiaretic acid when employing alkaline pH's.

The test system of series [2] is succinic oxidase and reduced nicotinamide-adenine dinucleotide oxidase. The series can be described thus: Respiratory chain of mouse heart homogenates. Format: biochemical. The conditions noted are these: under certain conditions, Eichel unpublished.
Series [3] concerns the target T2, yeast alcohol dehydrogenase (Saccharomyces cerevisiae, UniProt P00330).
T2 sequence (P00330 1-348): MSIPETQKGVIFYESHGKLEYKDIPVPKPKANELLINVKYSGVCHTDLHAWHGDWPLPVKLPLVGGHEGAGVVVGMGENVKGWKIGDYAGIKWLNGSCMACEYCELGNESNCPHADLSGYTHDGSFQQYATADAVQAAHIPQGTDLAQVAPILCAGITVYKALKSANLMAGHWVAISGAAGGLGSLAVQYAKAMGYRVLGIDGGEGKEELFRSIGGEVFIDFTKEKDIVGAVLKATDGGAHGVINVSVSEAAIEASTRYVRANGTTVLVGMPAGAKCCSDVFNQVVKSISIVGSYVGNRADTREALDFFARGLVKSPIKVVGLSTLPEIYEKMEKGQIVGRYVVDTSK
The conditions noted are these: 2.7×10^−4 Molar (80 ppm); cited from earlier work.

Series [4] concerns rat liver cyclophorase. The conditions noted are these: 2.7×10^−3 Molar (160 ppm); listed as nordihydroguaiaretic acid; cited from earlier work.
For series [5], the system named is plant lipoxidase. The conditions noted are these: cited from earlier work.
Series [6] deals with human whole saliva. The conditions noted are these: low concentrations; cited from earlier work.
Series [7] has as its system Ehrlich carcinoma, Li210 mouse leukemia and other cancer cells. As to conditions: in vivo and in vitro; cited from earlier work.
The conditions of series [8]: cited from earlier work.

`CC(Cc1ccc(O)c(O)c1)C(C)Cc1ccc(O)c(O)c1` (stereo not drawn) [NDGA, beta, gamma-dimethyl-alpha, ortho-bis (3,4 dihydroxiphenyl) butane]: the NADH2-NDGA-MPO velocity constant in series [1] (NDGA solution aged 0 minutes) is listed as 0.00 μ Moles NADH2 oxidized per minute per ml. of sputum supernatant; in series [1] (NDGA solution aged 60 minutes), 8.97 μ Moles NADH2 oxidized per minute per ml. of sputum supernatant; in series [1] (NDGA solution aged 120 minutes), 14.43 μ Moles NADH2 oxidized per minute per ml. of sputum supernatant; in series [1] (NDGA solution aged 180 minutes), 27.65 μ Moles NADH2 oxidized per minute per ml. of sputum supernatant; in series [1] (NDGA solution aged 240 minutes) it was 28.89 μ Moles NADH2 oxidized per minute per ml. of sputum supernatant; in series [1] (NDGA solution aged 337 minutes) it was 32.40 μ Moles NADH2 oxidized per minute per ml. of sputum supernatant. In addition, the values for the NADH2-NDGA-MPO velocity constant in series [1] (NDGA solution aged 397 minutes), in series [1] (NDGA solution aged 440 minutes) and in series [1] (NDGA solution aged 485 minutes) were 41.39 μ Moles NADH2 oxidized per minute per ml. of sputum supernatant, 44.21 μ Moles NADH2 oxidized per minute per ml. of sputum supernatant and 46.85 μ Moles NADH2 oxidized per minute per ml. of sputum supernatant, respectively. Further, the “inhibition of the respiratory chain (succinic oxidase, reduced nicotinamide-adenine dinucleotide oxidase)” value in series [2] is listed as “effective inhibitor”. Further, the “inhibition of yeast alcohol dehydrogenase” value in series [3] is reported as 71%. Also, the “inhibition of rat liver cyclophorase” value in series [4] is 93% and 70%. Moreover, the “inhibition of plant lipoxidase-catalyzed oxidation and auto-oxidation of linoleate” value in series [5] is listed as “well-known inhibitor”. In series [6], the “inhibition of aerobic and anaerobic glycolysis” value is recorded as “markedly inhibited”. Also, the “inhibition of endogenous and glucose dependent respiration” value in series [6] is given as “nearly as effectively inhibited”. Also, the “inhibition of the same metabolic activities in cancer cells” value in series [7] is on record as “similarly inhibited”. Also, the solubility result in series [8] (dilute hydrochloric acid) was “insoluble”; in series [8] (ethanol, methanol, ether, acetone, glycerol, propylene glycol, dilute alkali), “soluble”; in series [8] (hot water and chloroform), “slightly soluble”.
